Data: PMC7799364, “Dual inhibition of the terminal oxidases eradicates antibiotic‐tolerant Mycobacterium tuberculosis” (EMBO Molecular Medicine, 2020)

Key:
[1] = molecular target: T1, cytochrome bd oxidase (Cyt-bd) (Mycolicibacterium smegmatis, UniProt A0QXA8); assay: reduced minus oxidized heme difference spectra of NADH-energized ΔqcrCAB IMVs with […] compound; assay type: cell-based
T1 construct: gene MSMEG_3233; native enzyme in inverted-membrane vesicles of M. smegmatis ΔqcrCAB; with CydB
T1 sequence (A0QXA8 1-487): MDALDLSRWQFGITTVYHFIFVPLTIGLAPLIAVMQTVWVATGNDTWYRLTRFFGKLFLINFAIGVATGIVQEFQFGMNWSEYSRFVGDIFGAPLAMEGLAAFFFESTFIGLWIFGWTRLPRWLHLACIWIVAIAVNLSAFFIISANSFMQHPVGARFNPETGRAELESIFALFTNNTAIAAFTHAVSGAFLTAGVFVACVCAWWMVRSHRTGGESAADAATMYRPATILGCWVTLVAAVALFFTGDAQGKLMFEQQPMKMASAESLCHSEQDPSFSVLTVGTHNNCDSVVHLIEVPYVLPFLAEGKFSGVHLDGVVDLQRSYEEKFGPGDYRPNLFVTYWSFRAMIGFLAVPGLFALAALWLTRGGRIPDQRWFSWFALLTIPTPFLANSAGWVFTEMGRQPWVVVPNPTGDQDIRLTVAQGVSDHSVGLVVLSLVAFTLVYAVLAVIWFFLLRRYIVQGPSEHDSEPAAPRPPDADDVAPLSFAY
T1 sequence (A0QXA7 1-350 partner): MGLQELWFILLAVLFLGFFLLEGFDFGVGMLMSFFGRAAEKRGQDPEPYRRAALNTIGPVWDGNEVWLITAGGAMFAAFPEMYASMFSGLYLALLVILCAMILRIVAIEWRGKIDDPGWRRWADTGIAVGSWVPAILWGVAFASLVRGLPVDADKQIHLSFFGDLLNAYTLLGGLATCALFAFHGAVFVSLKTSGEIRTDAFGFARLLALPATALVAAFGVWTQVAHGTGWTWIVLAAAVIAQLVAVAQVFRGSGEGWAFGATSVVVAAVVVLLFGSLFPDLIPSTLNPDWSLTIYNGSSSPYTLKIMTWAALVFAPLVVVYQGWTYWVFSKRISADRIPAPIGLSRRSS

[2] = molecular target: T2, cytochrome bcc (QcrB, cytochrome b subunit of cytochrome bcc:aa3) (Mycolicibacterium smegmatis, UniProt A0R052); assay: NADH-based heme difference spectra of wild-type IMVs with […] Q203; Q203 also inhibits OCR of ΔcydAB IMVs; assay type: cell-based
T2 construct: gene MSMEG_4263; native cytochrome bcc-aa3 supercomplex in wild-type inverted-membrane vesicles; with cytochrome bcc-aa3 supercomplex

FC(F)(F)c1ccc(Oc2ccc(Nc3ncnc4ccccc34)cc2)cc1 [ND-011992, N‐(4‐(4‐(trifluoromethyl)phenoxy)phenyl)quinazolin‐4‐amine]
reduced minus oxidized heme difference spectra of NADH-energized ΔqcrCAB IMVs wi [1]: the compound selectively binds and affects electron transfer in the mycobacterial Cyt‐bd

CCc1nc2ccc(Cl)cn2c1C(=O)NCc1ccc(N2CCC(c3ccc(OC(F)(F)F)cc3)CC2)cc1 [Q203]
NADH-based heme difference spectra of wild-type IMVs with 7.5 μM Q203; Q203 also [2]: confirming drug binding and inhibition of the electron transfer within the cytochrome bcc complex
